Where a SMILES comes first, the peptide text is derived from it.
Assays:
pT^668-APP = assay: Western blot, pT^668-APP level in brain; format: in vivo, mouse; conditions: 5 mg∙kg^−1 i.p., five days per week, six months; HC and CTX
Description: (§1) For this study, three-month-old male and female WT and APP/PS1 mice (n = 37) were used. Four groups were defined: WT-vehicle (physiological saline) (male n = 4; female n = 6), WT-P33 (male n = 6; female n = 5), APP/PS1-vehicle (male n = 3; female n = 5), and APP/PS1-P33 (male n = 6; female n = 2). Animals were subjected to intraperitoneal (i.p.) injections of P33 (5 mg∙kg^−1) for five days per week, over a course of six months. The mice were kept in groups under constant temperature (23 ± 0.5 °C), lighting (12-h/12-h light/dark cycle, lights on at 7:00 a.m.), and humidity (~50%). Standard mouse chow and tap water were supplied ad libitum. All behavioral experiments were performed in the light period. Handling was done daily at the same time.
(§2) Nine-month-old mice (three animals per group) were euthanized via cervical dislocation. […] To quantify the level of Aβ in the mice, we used a sandwich ELISA Kit (Innotest Amyloid-[…]) from Innogenetics (Gent, Belgium), following the instructions of the manufacturer. The absorbance values were measured at 450 nm on a 96-well plate reader (NOVOstar OPTIMA, BMG Labtech, Offenburg, Germany). […]
(§3) The results of spine density and immunohistochemistry experiments were calculated with one-way ANOVA followed by Fisher’s LSD post hoc tests. […] Data were analyzed with SPSS (IBM SPSS Statistics 24), and were expressed as the mean ± standard error of the mean (SEM). […]

human Aβ1–42 = assay: ELISA, soluble Aβ1–42 in HC and CTX; format: in vivo, human Aβ1–42 in APP/PS1 transgenic mice; conditions: APP/PS1 mice; 5 mg∙kg^−1 i.p., six months
Description: as §1
Nine-month-old mice (three animals per group) were euthanized via cervical dislocation. […] To quantify the level of Aβ in the mice, we used a sandwich ELISA Kit (Innotest Amyloid-[…]) from Innogenetics (Gent, Belgium), following the instructions of the manufacturer. The absorbance values were measured at 450 nm on a 96-well plate reader (NOVOstar OPTIMA, BMG Labtech, Offenburg, Germany).
as §3

Fe65 = assay: Western blot, Fe65 level in brain; format: in vivo, mouse; conditions: APP/PS1 mice; 5 mg∙kg^−1 i.p., five days per week, six months; HC and CTX
Description: as §1, §2, §3

synaptophysin (SYN) = assay: Western blot, synaptophysin (SYN) level; format: in vivo, mouse; conditions: four groups WT/APP/PS1, vehicle/P33; 5 mg∙kg^−1 i.p., six months
Description: as §1, with “Handling was done daily at the same time.” left out
Protein samples, identically prepared as for ELISA, (20 μg/lane) were separated on a 15% SDS-polyacrylamide gel (80 V, 20 min at RT; than 130 V, 60 min at RT) or on a 4–12% NuPAGE® Bis-Tris Gel (Thermo Fischer Scientific, Waltham, MA, USA, 200V, 30 min at RT) and transferred to a nitrocellulose membrane (Whatman, Maidstone, UK, 450 mA, 90 min at 4 °C). […] Membranes were scanned with a Bio-Rad Molecular Imager® ChemiDoc™ XRS+Imaging System (Bio-Rad Laboratories, Hercules, CA, USA) and evaluated with the Image Lab 4.0 software.
The results of spine density and immunohistochemistry experiments were calculated with one-way ANOVA followed by Fisher’s LSD post hoc tests. […]

[1] = system: APP/PS1 mice and C57BL/6 wild-type (WT) mice; assay: Morris water maze (MWM), spatial learning and memory; format: in vivo, mouse; conditions: for intersection area with vehicle group (bootstrap 2D contours): vehicle vs P33, 90% contours
Description: as §1
The experiment lasted for five days, and was conducted on every occasion in the light period. Mice were tested twice every day when they were allowed to swim until they found the platform. […] Four different starting points were used during the experiment; starting points were changed randomly during the tests. Trajectories of the mice were recorded with a video camera fixed on the ceiling, equipped with the software EthoVision XT8 (Noldus Information Technology, The Netherlands, 2011). The tracking system calculated the time to reach the platform, swimming speed, length of the swimming path (distance), and percentage time spent in each of the four virtual quadrants during the trials.
Behavioral data were analyzed by mixed ANOVA, followed by Fisher’s LSD post hoc tests for multiple comparisons. The classical and modified ANOVA data evaluation methods applied for the raw measurements could detect only some significant effects without explaining their positions. Convenient post hoc analysis methods, like Student’s t-statistics, need a Gaussian distribution of the analysis data. Additionally, only the probability of the false positive decision error can be set up, and the probability of the false negative decision error remains unknown. Therefore, we developed and used nonparametric statistics. The one-response variable data (swimming times) were used to generate a two-variable model: (1) the reciprocal of the slope of the fitted straight line between the swimming time and the days (its negative values close to zero indicate an improvement in the memory and learning functions of the mice from day to day); (2) swimming time data of the last day (closeness to zero indicates an effective learning process). The two variables were combined, and evaluating them together gave more reliable multiple statistical results. […]

C[C@@H](N)C(=O)N1CCC[C@@H]1C(=O)N[C@H](C)C(=O)N1CCC[C@@H]1C(=O)N[C@H](CCC(=O)O)C(N)=O [P33] (HELM PEPTIDE1{[dA].[dP].[dA].[dP].[dE].[am]}$$$$V2.0)
pT^668-APP level, effect of P33 (in words) (pT^668-APP): had no significant effect on the pT^668-APP level | soluble Aβ1–42, effect of P33 (in words) (human Aβ1–42): decreased level of Aβ1–42 in the APP/PS1 mice | Fe65 level, effect of P33 (in words) (Fe65): could not be considerably changed by the treatment with P33 | SYN level, effect (in words) (synaptophysin (SYN)): significant differences were not found between the groups | permutation test of swimming times vs randomness (in words) ([1]; APP/PS1-P33, 50,000 resamples, 1/m and yend): significant improvement, as the randomness of the measurements was drastically decreased | intersection area with vehicle group (bootstrap 2D contours) ([1]; APP/PS1 groups, % of total areas of both, 50,000 resamples): approximately 2% | latency to find the platform, effect of P33 (in words) ([1]; APP/PS1 mice, 5 mg∙kg^−1 i.p., six months, MWM five days): seemed to have a positive effect on their learning abilities | intersection area with vehicle group (bootstrap 2D contours) ([1]; WT groups, % of total area of P33 treatment (vehicle 32%), 50,000 resamples): 89%

— article PMC6627374, “Effects of the Pentapeptide P33 on Memory and Synaptic Plasticity in APP/PS1 Transgenic Mice: A Novel Mechanism Presenting the Protein Fe65 as a Target” (International Journal of Molecular Sciences, 2019)
